ChEMBL document CHEMBL1201862, “PubChem BioAssay data set” (2004)
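Growth conditions: 96-well plates. Treatment: test compound, 48 hours, 5 concentrations. Analysis: linear interpolation between bracketing concentrations; unreached endpoints set to highest concentration. Here, GI50 denotes the concentration required for 50% inhibition of growth.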 Active and inactive are the calls of the source. Rule as the data show it: active = GI50 up to about 1.1 µM and inactive = higher.

What was measured:
Test in all cases: DTP human tumour cell line panel, 48 h
786-0 = tested on: 786-0
BT-549 = tested on: BT-549
CAKI-1 = tested on: CAKI-1
COLO 205 = tested on: COLO 205
HCT-15 = tested on: HCT-15
HOP-62 = tested on: HOP-62
IGROV-1 = tested on: IGROV-1
K562 = tested on: K562
MDA-N = tested on: MDA-N
Malme-3M = tested on: Malme-3M
NCI/ADR-RES = tested on: NCI/ADR-RES
OVCAR-8 = tested on: OVCAR-8
SF-295 = tested on: SF-295
SK-MEL-2 = tested on: SK-MEL-2
SN12C = tested on: SN12C
SNB-19 = tested on: SNB-19
SW-620 = tested on: SW-620
U-251 = tested on: U-251
UACC-62 = tested on: UACC-62

Row | SMILES | GI50 (786-0) | GI50 (BT-549) | GI50 (CAKI-1) | GI50 (COLO 205) | GI50 (HCT-15) | GI50 (HOP-62) | GI50 (IGROV-1) | GI50 (K562) | GI50 (MDA-N) | GI50 (Malme-3M) | GI50 (NCI/ADR-RES) | GI50 (OVCAR-8) | GI50 (SF-295) | GI50 (SK-MEL-2) | GI50 (SN12C) | GI50 (SNB-19) | GI50 (SW-620) | GI50 (U-251) | GI50 (UACC-62)
1 | CCOC(=O)CC[C@@H](NC(=O)c1ccc(NCc2ccc3nc(OC)c(OC)nc3c2)cc1)C(=O)OCC | 59.4 µM (inactive) | > 67.3 µM (inactive) | > 83.9 µM (inactive) | 28.6 µM (inactive) | > 87.3 µM | > 77.4 µM (inactive) | 22.5 µM (inactive) | 46.8 µM (inactive) | 30.1 µM (inactive) | 19.5 µM (inactive) | > 100 µM (inactive) | > 100 µM (inactive) | 70.8 µM (inactive) | 18.1 µM (inactive) | 52 µM (inactive) | > 100 µM (inactive) | 80.7 µM (inactive) | > 100 µM (inactive) | 15.5 µM (inactive)
2 | O=C(Nc1nnc(-c2ccc(Cl)cc2)o1)C(SC(=S)N1CCCCC1)c1ccccc1 (configuration not stated) | 14.8 µM (inactive) | 17.6 µM (inactive) | 13.6 µM (inactive) | 24.4 µM (inactive) | 7.16 µM | 25.9 µM (inactive) | 9.38 µM (inactive) | 11.6 µM (inactive) | 15.5 µM (inactive) | 3.11 µM (inactive) | 4.84 µM (inactive) | 22.1 µM (inactive) | 12 µM (inactive) | 15.7 µM (inactive) | 12.5 µM (inactive) | 20.5 µM (inactive) | 33.3 µM (inactive) | 13 µM (inactive) | 14.2 µM (inactive)
3 | CC(=O)c1cccc2c1CC1(C2)Cc2ccc3c(c2C1=O)CCC3 (configuration not stated) | 41.2 µM (inactive) | 82.2 µM (inactive) | 48 µM (inactive) | 26.5 µM (inactive) | 33.6 µM | 54 µM (inactive) | 74 µM (inactive) | 21.6 µM (inactive) | 49.1 µM (inactive) | 14.3 µM (inactive) | 12.7 µM (inactive) | 57.1 µM (inactive) | 43.2 µM (inactive) | 26.2 µM (inactive) | 35.8 µM (inactive) | > 100 µM (inactive) | 55.2 µM (inactive) | 47.1 µM (inactive) | 78.5 µM (inactive)
4 | O=[N+]([O-])c1cccc2nc3ccccc3c(NCCC[N+]3([O-])CCOCC3)c12 | 0.116 µM (active) | 0.373 µM (active) | 2.65 µM (inactive) | 0.0731 µM (active) | 1.36 µM | 0.119 µM (active) | 0.15 µM (active) | 0.223 µM (active) | 0.13 µM (active) | 0.162 µM (active) | 11.4 µM (inactive) | 0.21 µM (active) | 0.275 µM (active) | 0.175 µM (active) | 0.171 µM (active) | 0.28 µM (active) | 0.131 µM (active) | 0.209 µM (active) | 0.154 µM (active)
5 | COc1ccc(CC2Cc3ccccc3CC(=O)N2)cc1OC (configuration not stated) | > 100 µM (inactive) | 37.4 µM (inactive) | > 100 µM (inactive) | > 100 µM (inactive) | > 100 µM | > 100 µM (inactive) | > 100 µM (inactive) | 44.9 µM (inactive) | 52.5 µM (inactive) | > 100 µM (inactive) | 27.5 µM (inactive) | 75 µM (inactive) | 86.7 µM (inactive) | > 100 µM (inactive) | > 100 µM (inactive) | > 100 µM (inactive) | > 100 µM (inactive) | > 100 µM (inactive) | 48.2 µM (inactive)
6 | CC1CNC(c2ccc(COc3ccc(C4=NC(C)CN4)cc3)cc2)=N1 (configuration not stated) | > 100 µM (inactive) | > 100 µM (inactive) | > 100 µM (inactive) | > 100 µM (inactive) | > 100 µM | 32.8 µM (inactive) | > 100 µM (inactive) | 15.5 µM (inactive) | 82.2 µM (inactive) | 27.6 µM (inactive) | > 100 µM (inactive) | 72.6 µM (inactive) | 43.4 µM (inactive) | 18.6 µM (inactive) | 17.6 µM (inactive) | 50.1 µM (inactive) | 67.9 µM (inactive) | 28.5 µM (inactive) | 26.2 µM (inactive)
7 | COCn1c2ccc(OC(C)=O)cc2c2c(=O)oc(C)nc21 | > 100 µM (inactive) | > 100 µM (inactive) | 57.7 µM (inactive) | > 100 µM (inactive) | > 100 µM | > 100 µM (inactive) | > 100 µM (inactive) | > 100 µM (inactive) | > 100 µM (inactive) | > 100 µM (inactive) | > 100 µM (inactive) | > 100 µM (inactive) | > 100 µM (inactive) | > 100 µM (inactive) | > 100 µM (inactive) | > 100 µM (inactive) | > 100 µM (inactive) | > 100 µM (inactive) | > 100 µM (inactive)
8 | O=c1/c(=C/c2ccc([N+](=O)[O-])o2)sc2n1[C@@H](c1ccc3c(c1)OCO3)C=C(c1cc(F)c(Cl)cc1Cl)N=2 | 9.51 µM (inactive) | 16.8 µM (inactive) | 13.7 µM (inactive) | 18.7 µM (inactive) | 9.59 µM | 22.5 µM (inactive) | 16.3 µM (inactive) | 5.09 µM (inactive) | 5.5 µM (inactive) | 19.7 µM (inactive) | 34.4 µM (inactive) | 11.9 µM (inactive) | 31.2 µM (inactive) | 25.1 µM (inactive) | 18 µM (inactive) | 20.8 µM (inactive) | 5.42 µM (inactive) | 19.9 µM (inactive) | 15.9 µM (inactive)
